Measured values reported in US20110256559A1, “Method for Detecting Soluble Amyloid Precursor Protein (APP) Alpha and/or Soluble APP Beta” (INSERM (Institut National de la Sante et de la Recherche …, priority 2008, published 2011).
“Also recorded” adds a separate entry of the source.

What was measured:
[1] = tested on: sAPPα; test: sAPPα HTRF assay in primary cortical neurons conditioned medium; assay type: cell-based, mouse; conditions: primary neurons from transgenic mice expressing wild type human APP (FIG. 8)
Description: (§1) Four types of biological samples were investigated using the following procedure: human CSF, human blood serum, culture medium of neuroblastoma SH-SY5Y cell line treated with different drugs (for instance the PKC activator PdBu which stimulate the ADAM 17 alpha secretase activity), or conditioned culture medium from primary mouse cortical neurons.
(§2) All samples and calibrator were treated with 10 mM DTT on ice, during 30 min. In a 384-well low volume (20 μl) white plate, reagents were distributed in the following order: • 5 μl 150 mM phosphate buffer pH 7.0, 0.2% BSA. • 5 μl sample or calibrator, treated with DTT and diluted. • 5 μl MAB348 antibody, cryptate conjugate, diluted 1/250 with 50 mM phosphate buffer pH 7.0, 0.4M KF. • 5 μl 2B3 antibody, D2 conjugate, diluted 1/250 with 50 mM phosphate buffer pH 7.0, 0.4M KF.
Validation of the sAPPα HTRF Assay in Primary Cortical Neurons Conditioned Medium. (FIG. 8)

[2] = tested on: sAPPα; test: sAPPα HTRF assay in SH-SY5Y neuroblastoma cells conditioned medium; assay type: cell-based, human; conditions: for effect on PdBu-induced increase of sAPPα secretion: PKC activated by PdBu (FIG. 7)
Description: as §1, §2
The plate covered with a plate sealer was centrifuged (1000 g 1 min) and incubated overnight, at room temperature.
The plate sealer was removed, and the plate read on a compatible HTRF reader (Envision, Perkin Elmer), at […].
Results are calculated from 665 nm/620 nm ratio and expressed in delta F: […]
Delta F is proportional to the sAPPα concentration; Delta F obtained for samples can be reported on the calibration curve to deduce respective sAPPα concentration.
Different samples were submitted to the sAPPα HTRF assay with or without DTT treatment.
Numerous studies have shown that the sAPPα secretion is regulated by some intracellular signalisation pathway involving PKC and that the α-secretase responsible for this secretion is a disintegrin-metalloproteinase (ADAM 17).

Compound: O=C(O[C@@H]1Cc2c(O)cc(O)cc2O[C@@H]1c1cc(O)c(O)c(O)c1)c1cc(O)c(O)c(O)c1 [EGCG]
- effect on sAPP alpha in the medium [1]: increase of sAPP alpha

Compound: PACAP 1-27
- effect on sAPP alpha in the medium [1]: increase of sAPP alpha

Compound: CC(C)C[C@H](CC(=O)NO)C(=O)N[C@@H](Cc1ccc2ccccc2c1)C(=O)N[C@@H](C)C(N)=O [TAPI 0]
- effect on PdBu-induced increase of sAPPα secretion ([2]; SH-SY5Y conditioned medium): abolished

Compound: CN(C)CCCn1cc(C2=C(c3c[nH]c4ccccc34)C(=O)NC2=O)c2ccccc21 [GF 109203]
- effect on PdBu-induced increase of sAPPα secretion ([2]; SH-SY5Y conditioned medium): abolished

Compound: CCCC(=O)O[C@@H]1[C@@H](C)[C@@]2(O)[C@@H](C=C(CO)C[C@]3(O)C(=O)C(C)=C[C@@H]23)[C@@H]2C(C)(C)[C@]12OC(=O)CCC [PdBu]
- effect on amount of sAPPα / sAPPα secretion ([2]; SH-SY5Y conditioned medium, samples pre-treated with DTT (FIG. 7)): activates the production of sAPPα; also recorded: increased
- sAPP alpha, Without DTT ([2]; conditioned medium of SH-SY5Y neuroblastoma cell line, no DTT pre-treatment, n=8): 3.4 ± 0.4 ng/mL
- sAPP alpha, With DTT ([2]; conditioned medium of SH-SY5Y neuroblastoma cell line, sample pre-treated with 10 mM DTT, n=8): 59.1 ± 2.8 ng/mL
- sAPPα Mean, inter assay reproducibility ([2]; conditioned medium, inter assay, 16 samples): 61.4 ng/mL
- sAPPα Mean, intra assay reproducibility ([2]; conditioned medium, intra assay, 8 samples): 59.1 ng/mL
